ChEMBL document CHEMBL4673289, “Design, synthesis and biological evaluation of imidazolopyridone derivatives as novel BRD4 inhibitors” (Bioorg Med Chem, 2021)
Active and inactive are the calls of the source. The calls are words filed in the database; no cut-off is given here.

Experiments:
[1] = target: T1, Bromodomain-containing protein 4 (Homo sapiens, UniProt O60885); experiment: Inhibition of BRD4 (unknown origin) at 1 uM preincubated for 15 mins followed by substrate addition and measured after 1 hr by AlphaScreen assay relative to control; details: time 75.0 min
[2] = target: T1, Bromodomain-containing protein 4; experiment: Inhibition of BRD4 (unknown origin) preincubated for 15 mins followed by substrate addition and measured after 1 hr by AlphaScreen assay relative to control
SMMC-7721 = experiment: Antiproliferative activity against human SMMC-7721 cells assessed as cell growth inhibition at 2 uM measured after 48 to 72 hrs by MTT assay relative to control; assay type: functional; details: time 48-72 hrs, read-out: GI
BXPC-3 = experiment: Antiproliferative activity against human BXPC-3 cells assessed as cell growth inhibition at 2 uM measured after 48 to 72 hrs by MTT assay relative to control; assay type: functional; details: time 48-72 hrs, read-out: GI
PANC-1 = experiment: Antiproliferative activity against human PANC-1 cells assessed as cell growth inhibition at 2 uM measured after 48 to 72 hrs by MTT assay relative to control; assay type: functional; details: time 48-72 hrs, read-out: GI
Panc02 = experiment: Antitumor activity against mouse Panc02 allografted in BALB/c mouse assessed as reduction in tumor weight at 100 mg/kg, ip administered every day for 20 days relative to control; assay type: functional; details: 480 h, time 20 day, read-out: TGI
[3] = Toxicity in BALB/c mouse allografted with mouse Panc02 cells assessed as effect on body weight at 100 mg/kg, ip administered every day measured after 19 days; assay type: organism-based; details: in vivo, 456 h, time 19 day
Mus musculus [4] = experiment: Upregulation of caspase 3 in BALB/c mouse allografted with mouse Panc02 cells […] at 100 mg/kg, ip administered every day measured after 20 days by immunohistochemical analysis; assay type: functional, organism-based; details: time 20.0 day
Mus musculus [5] = experiment: Downregulation of Ki67 expression in BALB/c mouse allografted with mouse Panc02 cells […] at 100 mg/kg, ip administered every day measured after 20 days by immunohistochemical analysis; assay type: functional, organism-based; details: time 20.0 day

inhibition [1]	IC50 [2]	SMILES	inhibition of growth at 2 µM (SMMC-7721)	inhibition of growth at 2 µM (BXPC-3)	inhibition of growth at 2 µM (PANC-1)	further results
86.3%	–	CCS(=O)(=O)c1ccc(Oc2cc(-c3c(C)noc3C)ccc2Cl)c(-c2cn(C)c(=O)c3cncn23)c1	–	–	–	–
78.1%	–	CCS(=O)(=O)c1ccc(Oc2ccc(F)c(-c3c(C)noc3C)c2)c(-c2cn(C)c(=O)c3cncn23)c1	–	–	–	–
93.2%	435 nM	CCS(=O)(=O)c1ccc(Oc2cccc(-c3c(C)noc3C)c2)c(-c2cn(C)c(=O)c3cncn23)c1	18.2%	41.2%	21.6%	–
64.9%	–	CCS(=O)(=O)c1ccc(Oc2ccc(Cl)c(-c3c(C)noc3C)c2)c(-c2cn(C)c(=O)c3cncn23)c1	–	–	–	–
70.2%	–	CCS(=O)(=O)c1ccc(Oc2cccc(-c3c(C)noc3C)n2)c(-c2cn(C)c(=O)c3cncn23)c1	–	–	–	–
99.5%	152 nM	CCS(=O)(=O)c1ccc(Oc2cc(-c3c(C)noc3C)ccc2F)c(-c2cn(C)c(=O)c3cncn23)c1	21.3%	33.2%	19.6%	–
95.2%	261 nM	CCS(=O)(=O)c1ccc(Oc2cc(-c3c(C)noc3C)ccc2C)c(-c2cn(C)c(=O)c3cncn23)c1	11.4%	30.2%	20.6%	–
96.5%	254 nM	CCS(=O)(=O)c1ccc(Oc2ccc(C)c(-c3c(C)noc3C)c2)c(-c2cn(C)c(=O)c3cncn23)c1	19.9%	35.8%	23.7%	–

The next lines start with the molecule.

SMILES	inhibition [1]	IC50 [2]	inhibition of growth at 2 µM (SMMC-7721)	inhibition of growth at 2 µM (BXPC-3)	inhibition of growth at 2 µM (PANC-1)	further results
Cc1noc(C)c1-c1cccc(Oc2ccc(S(C)(=O)=O)cc2-c2cn(C)c(=O)c3cncn23)c1	62.7%	–	–	–	–	–
CCS(=O)(=O)c1ccc(Oc2cc(-c3c(C)noc3C)ccc2OC)c(-c2cn(C)c(=O)c3cncn23)c1	99.9%	56 nM	18.4%	42.2%	16.2%	–
Cc1sc2c(c1C)C(c1ccc(Cl)cc1)=N[C@@H](CC(=O)C(C)(C)C)c1nnc(C)n1-2	99.5%	88 nM	12.2%	31.1%	17.1%	–
Nc1ccn([C@@H]2O[C@H](CO)[C@@H](O)C2(F)F)c(=O)n1 [GEMCITABINE]	–	–	–	–	–	inhibition in vivo at 100 mg/kg (Panc02): 70%; Activity [3]: Non-Toxic; Activity (Mus musculus [4]): Active; Activity (Mus musculus [5]): Active
CCS(=O)(=O)c1ccc(Oc2cc(F)c(F)c(F)c2)c(-c2cn(C)c(=O)c3cncn23)c1	40.1%	–	–	–	–	–
CCS(=O)(=O)c1ccc(Oc2cc(-c3c(C)noc3C)ccc2C#N)c(-c2cn(C)c(=O)c3cncn23)c1	31.2%	–	–	–	–	–
